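Grown in 96-well plates, cells were treated for 48 hours with each compound at five concentrations. Insufficient inhibition: endpoint recorded as highest concentration tested. TGI denotes the concentration required for complete inhibition of growth.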
Key:
Experiment in all cases: NCI tumour cell line growth inhibition, 48 h
[1] = test system: SF-268 CNS
[2] = test system: HCT-15 colon
[3] = test system: T-47D breast
[4] = test system: SK-MEL-28 melanoma
[5] = test system: SW-620 colon
[6] = test system: TK-10 renal
[7] = test system: A549 NSCLC
[8] = test system: RXF 393 renal
[9] = test system: NCI-H226 lung
[10] = test system: EKVX NSCLC
[11] = test system: OVCAR-8 ovarian
[12] = test system: IGROV1 ovarian
[13] = test system: MDA-MB-435
[14] = test system: PC-3 prostate
[15] = test system: NCI-H23 lung
[16] = test system: SF-295 CNS
[17] = test system: SK-OV-3 ovarian
[18] = test system: SK-MEL-5 melanoma
[19] = test system: SF-539 CNS
[20] = test system: HL-60(TB) leukemia
[21] = test system: OVCAR-3 ovarian
[22] = test system: K-562 leukemia
[23] = test system: CAKI-1 renal
[24] = test system: HS 578T breast
[25] = test system: UACC-62 melanoma
[26] = test system: COLO 205 colon
[27] = test system: A498 renal
[28] = test system: MOLT-4 leukemia
[29] = test system: ACHN renal
[30] = test system: OVCAR-4 ovarian
[31] = test system: UO-31 renal
[32] = test system: MCF7 breast
[33] = test system: KM12 colon
[34] = test system: LOX IMVI melanoma
[35] = test system: SNB-75 CNS
[36] = test system: SK-MEL-2 melanoma
[37] = test system: CCRF-CEM leukemia
[38] = test system: HCC-2998 colon
[39] = test system: 786-0 renal
[40] = test system: HOP-62 NSCLC
[41] = test system: DU-145 prostate
[42] = test system: UACC-257 melanoma
[43] = test system: SN12C renal
[44] = test system: NCI-H460 lung
[45] = test system: NCI-H522 lung
[46] = test system: U251 CNS
[47] = test system: RPMI-8226 leukemia
[48] = test system: NCI/ADR-RES ovarian
[49] = test system: OVCAR-5 ovarian
[50] = test system: HCT-116 colon
[51] = test system: HT29 colon
[52] = test system: MDA-N
[53] = test system: MALME-3M melanoma
[54] = test system: MDA-MB-231 breast
[55] = test system: M14 melanoma
[56] = test system: BT-549 breast
[57] = test system: SNB-19 CNS
[58] = test system: HOP-92 NSCLC

Cc1ccc(C(=O)Nc2ccc(CP(=O)(O)O)cc2CP(=O)(O)O)cc1NC(=O)c1cccc(NC(=O)Nc2cccc(C(=O)Nc3cc(C(=O)Nc4ccc(CP(=O)(O)O)cc4CP(=O)(O)O)ccc3C)c2)c1
TGI [1]: > 100 µM | TGI [2]: > 100 µM | TGI [3]: > 100 µM | TGI [4]: > 100 µM | TGI [5]: > 100 µM | TGI [6]: > 100 µM | TGI [7]: > 100 µM | TGI [8]: > 100 µM | TGI [9]: > 100 µM | TGI [10]: > 100 µM | TGI [11]: > 100 µM | TGI [12]: > 100 µM | TGI [13]: > 100 µM | TGI [14]: > 100 µM | TGI [15]: > 100 µM | TGI [16]: > 100 µM | TGI [17]: > 100 µM | TGI [18]: > 100 µM | TGI [19]: > 100 µM | TGI [20]: > 100 µM | TGI [21]: > 100 µM | TGI [22]: > 100 µM | TGI [23]: > 100 µM | TGI [24]: > 100 µM | TGI [25]: > 100 µM | TGI [26]: > 100 µM | TGI [27]: > 100 µM | TGI [28]: > 100 µM | TGI [29]: > 100 µM | TGI [30]: > 100 µM | TGI [31]: > 100 µM | TGI [32]: > 100 µM | TGI [33]: > 100 µM | TGI [34]: > 100 µM | TGI [35]: > 100 µM | TGI [36]: > 100 µM | TGI [37]: > 100 µM | TGI [38]: > 100 µM | TGI [39]: > 100 µM | TGI [40]: > 100 µM | TGI [41]: > 100 µM | TGI [42]: > 100 µM | TGI [43]: > 100 µM | TGI [44]: > 100 µM | TGI [45]: > 100 µM | TGI [46]: > 100 µM | TGI [47]: > 100 µM | TGI [48]: > 100 µM | TGI [49]: > 100 µM | TGI [50]: > 100 µM | TGI [51]: > 100 µM | TGI [52]: > 100 µM | TGI [53]: > 100 µM | TGI [54]: > 100 µM | TGI [55]: > 100 µM | TGI [56]: > 100 µM

OC(c1cc(-c2ccc(Cl)cc2)nc2ccccc12)C1CCCCN1 (configuration not stated)
TGI [57]: 37.6 µM | TGI [1]: 4.51 µM | TGI [2]: 6.11 µM | TGI [3]: 2.96 µM | TGI [4]: 3.53 µM | TGI [58]: 12.2 µM | TGI [5]: 3.69 µM | TGI [6]: 9.85 µM | TGI [7]: 3.53 µM | TGI [8]: 0.315 µM | TGI [9]: 39 µM | TGI [10]: 4.74 µM | TGI [11]: 5.28 µM | TGI [13]: 4.35 µM | TGI [14]: 3.79 µM | TGI [15]: 4.58 µM | TGI [16]: 3.67 µM | TGI [17]: 5.5 µM | TGI [18]: 5.9 µM | TGI [19]: 3.52 µM | TGI [20]: 4.61 µM | TGI [21]: 3.98 µM | TGI [22]: 3.13 µM | TGI [23]: 6.44 µM | TGI [24]: 4.34 µM | TGI [25]: 3.43 µM | TGI [26]: 3.19 µM | TGI [27]: 3.54 µM | TGI [28]: 4.52 µM | TGI [29]: 4.1 µM | TGI [30]: 5.11 µM | TGI [31]: 2.45 µM | TGI [32]: 3.03 µM | TGI [33]: 5.42 µM | TGI [34]: 2.09 µM | TGI [37]: 2.52 µM | TGI [38]: 3.94 µM | TGI [39]: 3.92 µM | TGI [40]: 3.13 µM | TGI [41]: 3.45 µM | TGI [42]: 9.71 µM | TGI [43]: 3.54 µM | TGI [44]: 4.76 µM | TGI [45]: 2.77 µM | TGI [46]: 3.25 µM | TGI [47]: 3.12 µM | TGI [48]: 5.79 µM | TGI [49]: 4.94 µM | TGI [50]: 3.74 µM | TGI [51]: 3.82 µM | TGI [52]: 3.7 µM | TGI [53]: 2.94 µM | TGI [54]: 3.58 µM | TGI [55]: 3.37 µM | TGI [56]: 16 µM

CC(C)=c1sc(=C(C)C)c2c1=NC(C)(C)N=2
TGI [57]: > 100 µM | TGI [1]: > 100 µM | TGI [2]: > 100 µM | TGI [3]: > 100 µM | TGI [4]: > 100 µM | TGI [5]: > 100 µM | TGI [6]: > 100 µM | TGI [7]: > 100 µM | TGI [8]: > 100 µM | TGI [10]: > 100 µM | TGI [11]: > 100 µM | TGI [12]: > 100 µM | TGI [13]: > 100 µM | TGI [14]: > 100 µM | TGI [15]: > 100 µM | TGI [16]: > 100 µM | TGI [17]: > 100 µM | TGI [18]: > 100 µM | TGI [19]: > 100 µM | TGI [20]: > 100 µM | TGI [21]: > 100 µM | TGI [23]: > 100 µM | TGI [24]: > 100 µM | TGI [25]: > 100 µM | TGI [26]: > 100 µM | TGI [27]: > 100 µM | TGI [28]: > 100 µM | TGI [29]: > 100 µM | TGI [30]: > 100 µM | TGI [32]: > 100 µM | TGI [33]: > 100 µM | TGI [34]: > 100 µM | TGI [36]: > 100 µM | TGI [37]: > 100 µM | TGI [38]: > 100 µM | TGI [39]: > 100 µM | TGI [40]: > 100 µM | TGI [41]: > 100 µM | TGI [42]: > 100 µM | TGI [43]: > 100 µM | TGI [44]: > 100 µM | TGI [45]: > 100 µM | TGI [46]: > 100 µM | TGI [47]: > 100 µM | TGI [48]: > 100 µM | TGI [49]: > 100 µM | TGI [50]: > 100 µM | TGI [51]: > 100 µM | TGI [52]: > 100 µM | TGI [53]: > 100 µM | TGI [54]: > 100 µM | TGI [55]: > 100 µM | TGI [56]: > 100 µM

Cc1ccc(/C=C2\CN(C)CC3C2=NN(c2ccccc2)C3c2ccc(C)cc2)cc1 (configuration not stated)
TGI [57]: > 100 µM | TGI [1]: > 100 µM | TGI [2]: > 100 µM | TGI [3]: > 100 µM | TGI [4]: > 100 µM | TGI [58]: > 100 µM | TGI [5]: > 100 µM | TGI [6]: > 100 µM | TGI [7]: > 100 µM | TGI [8]: > 100 µM | TGI [9]: > 100 µM | TGI [10]: > 100 µM | TGI [11]: > 100 µM | TGI [12]: > 100 µM | TGI [13]: > 100 µM | TGI [14]: > 100 µM | TGI [15]: > 100 µM | TGI [16]: > 100 µM | TGI [17]: > 100 µM | TGI [18]: > 100 µM | TGI [21]: > 100 µM | TGI [22]: > 100 µM | TGI [23]: > 100 µM | TGI [24]: > 100 µM | TGI [25]: > 100 µM | TGI [26]: > 100 µM | TGI [27]: > 100 µM | TGI [28]: > 100 µM | TGI [29]: > 100 µM | TGI [30]: > 100 µM | TGI [31]: > 100 µM | TGI [32]: > 100 µM | TGI [33]: > 100 µM | TGI [34]: > 100 µM | TGI [36]: > 100 µM | TGI [37]: 95.7 µM | TGI [38]: > 100 µM | TGI [39]: > 100 µM | TGI [40]: > 100 µM | TGI [41]: > 100 µM | TGI [42]: > 100 µM | TGI [43]: > 100 µM | TGI [44]: > 100 µM | TGI [45]: > 100 µM | TGI [46]: > 100 µM | TGI [48]: > 100 µM | TGI [50]: > 100 µM | TGI [51]: > 100 µM | TGI [52]: > 100 µM | TGI [53]: > 100 µM | TGI [54]: > 100 µM | TGI [55]: > 100 µM | TGI [56]: > 100 µM
